Results as given in patent US5612204A, “Biological degradative treatment of chlorine substituted ethylene” (priority 1994, dated 1997).
Where two headings read alike, the source gives them in different places.

Columns and labels:
[1] = test system: Nocardia corallina B-276 (FERM P-4094; FERM BP-5124; ATCC 31338); assay: Reaction rate of degradation of chlorine-substituted substrates (Example 4, Table 1); assay type: cell-based
Experimental: Experiments were also carried on tetrachloroethylene (perchloroethylene) (PCE) and 1,2-dichloroethane (1,2-DCA).
The initial concentration of each substrate in the liquid phase was selected so as not to exceed 20 mg/l, i.e., the range in which no inhibition on the enzyme reaction is expected. Specifically, the substrate was added in an amount of […] which corresponded to 11.2 mg/l of trichloroethylene in terms of initial concentration in the liquid phase. […] The cell concentration during the reaction was set at 4.0 g/l or 8.0 g/l, and the concentration of the substrate remaining in the gas phase was measured with time in the same manner as in Example 3 and converted to the concentration in the liquid phase, from which the reaction rate was calculated.

[2] = test system: Nocardia corallina B-276 (FERM P-4094; FERM BP-5124; ATCC 31338); assay: Degradation of trichloroethylene by Nocardia corallina B-276 cell suspension (Example 1); assay type: cell-based; details: 1 mM trichloroethylene, glucose added, 30° C., 12 hours
Experimental: In a 500 ml Sakaguchi's flask was put 100 ml of NBG medium (a liquid medium containing 10 g of Lab-Lemco powder (produced by Oxoid Co., Ltd.), 10 g of bacteriological peptone, 10 g of glucose, 5 g of sodium chloride, and water to make 1 l, adjusted to pH 7.5 with a 1N aqueous sodium hydroxide solution, steam sterilized by autoclaving at 120° C. for 15 minutes) and inoculated with three loopfuls of Nocardia corallina B-276 (FERM P-4094; FERM BP-5124; ATCC 31338) using a platinum loop, followed by shake culture at 30° C. for 96 hours for previous proliferation.
The resulting culture was centrifuged to collect the microbial cells, which were suspended in 50 ml of a minimal medium (K2 HPO4 1.74 g, MgSO4. 7H2 O 1.5 g, FeSO4. H2 O 0.05 g, deionized water 1 l; adjusted to pH 8.0) to prepare a cell suspension. […]
For comparison, 50 ml of a cell-free medium (K2 HPO4 1.74 g, MgSO4.7H2 O 1.5 g, FeSO4. H2 O 0.05 g, deionized water 1 l; adjusted to pH 8.0) was put to a flask of the same volume as used above, and 2.5 ml of a 10% glucose solution and trichloroethylene (final concentration: 1 mM) were added thereto. […] The signal intensity (I2) was 95% or more of the initial signal intensity (I0) measured on the medium immediately after addition of trichloroethylene.

[3] = test system: E. coli JM109 (pDBB-1) (FERM BP-4250), transformant having an alkene monooxygenase gene of Nocardia corallina B-276 origin; assay: Degradation of trichloroethylene by transformant E. coli JM109 (pDBB-1) cell suspension (Example 2); assay type: cell-based, Escherichia coli; details: 1 mM trichloroethylene, glucose added, 30° C., 12 hours
Experimental: LB medium (1.5 ml) (a liquid medium containing 10 g of Bacto-trypton, 5 g of Bacto-yeast extract, 10 g of sodium chloride, and deionized water to make 1 l, adjusted to pH 7.2 with a 1N aqueous […] solution, steam sterilized by autoclaving at 120° C. for 15 minutes) containing 50 μg/ml of ampicillin was inoculated with one loopful of E. coli JM109 (pDBB-1) (FERM BP-4250) using a platinum loop, which is a transformant having an alkene monooxygenase gene of Nocardia corallina B-276 origin, and incubated at 37° C. overnight (about 14 hours) for previous proliferation of the microorganism. Then, 100 ml of LB medium containing 50 μg/ml of ampicillin was inoculated with the resulting culture and incubated at 37° C. for 2 hours. To the culture was added isopropyl-β-D-thiogalactopyranoside (IPTG) at a final concentration of 1 mM, followed by further shake culture at 37° C. for 5 hours. A 10 ml aliquot of the resulting culture was centrifuged to collect the microbial cells, which were suspended in 2 ml of a minimal medium (K2 HPO4 1.74 g, MgSO4.7H2 O 1.5 g, FeSO4.H2 O 0.05 g, deionized water 1 l; adjusted to pH 8.0) to prepare a cell suspension. […]

[4] = test system: Nocardia corallina B-276 (FERM P-4094; FERM BP-5124; ATCC 31338); assay: Influence of trichloroethylene concentration on reaction rate of biological oxidation (Example 3); assay type: cell-based; details: 35° C.
Text: In the biological oxidation of trichloroethylene with Nocardia corallina B-276 (FERM […]; FERM BP-5124; ATCC 31338), the influence of the trichloroethylene concentration on the reaction rate was examined as follows.
Nocardia corallina B-276 (FERM P-4094; FERM BP-5124; ATCC 31338) was previously proliferated in the same manner as described in Example 1. The microbial cells collected were suspended in a medium (K2 HPO4 1.74 g, MgSO4 .7H2 O 1.5 g, FeSO4.H2 O 0.05 g, deionized water 1 l; adjusted to pH 8.0) to prepare a cell suspension.
In a 17 ml-volume flask was put 2 ml of the cell suspension, 100 μl of a 10% glucose solution added as an energy source, a varied amount of trichloroethylene added thereto, and the flask sealed and incubated at 35° C. for 5 hours while shaking to allow the cells to act on the trichloroethylene. The cell concentration was 2.44 g/l. A 1 ml aliquot of the gas was taken out every 1 hour from the gas phase of the sealed flask and analyzed by gas chromatography (column: Porapak Q) to measure the gaseous trichloroethylene concentration. The trichloroethylene concentration remaining in the liquid phase was calculated from the gaseous phase trichloroethylene concentration. This calculation was made on the assumption that the partitioning of trichloroethylene between the gas and liquid phases in the vial are obeyed by the partition law.
FIG. 3 is a graph of rate of reduction of liquid phase trichloroethylene concentration plotted against initial trichloroethylene concentration.

[5] = Cell Concentration 4.0 g/l, initial substrate concentration not exceeding 20 mg/l

Row | SMILES | degradability by Nocardia corallina B-276 ([1]; result in words) | Reaction Rate [1, 5] [mg/L/h] | Reaction Rate ([1]; cell concentration 4.0 g/l) [mg/l hr] | degradability by Nocardia corallina B-276 [1] | further results
1 | C=C(Cl)Cl [1,1-Dichloroethylene, 1,1-dichloroethylene] | can be degraded |  |  |  | Reaction Rate ([1]; Cell Concentration 8.0 g/l, initial substrate concentration not exceeding 20 mg/l): 14.8 mg/L/h; reaction rate, corresponding value (for the cell concentration of the other substrates) ([1]; converted from the 8.0 g/l measurement): 7.4 mg/l hr
2 | ClCCCl [1,2-Dichloroethane, 1,2-dichloroethane] | cannot be degraded | 0 |  |  | 
3 | ClC(Cl)=C(Cl)Cl [Tetrachloroethylene, tetrachloroethylene] | cannot be degraded | 0 |  |  | 
4 | ClC=C(Cl)Cl [Trichloroethylene, trichloroethylene] |  | 5.5 | 5.5 |  | trichloroethylene degraded [2]: about 98%; trichloroethylene concentration remaining in the medium (signal intensity I1 relative to I2) ([2]; sealed flask, gas chromatography, relative to cell-free medium): about 2%; trichloroethylene degraded [3]: about 17%; trichloroethylene concentration remaining in the medium (signal intensity I4 relative to I3) ([3]; sealed flask, gas chromatography): about 83%; Michaelis constant Km of the trichloroethylene substrate ([4]; cell concentration 2.44 g/l, calculated based on the results of FIG. 3): 90.4 mg/L; Km ([4]; cell concentration 2.44 g/l, calculated based on the results of FIG. 3, read-out: Michaelis constant Km of the trichloroethylene substrate): 678 µM; inhibition of the reaction by substrate ([4]; at least up to 90 mg/l of the initial trichloroethylene concentration in the liquid phase): no obvious inhibition
5 | Cl/C=C\Cl [cis-1,2-Dichloroethylene, cis-1,2-dichloroethylene] |  | 72.2 |  | can be degraded | 
6 | Cl/C=C/Cl [trans-1,2-dichloroethylene] |  | 6.5 | 6.5 | can be degraded | 
